Values quoted from earlier work, collected in patent US8426044B2, “Method for imparting antimicrobial activity to a medical device” (Board of Regents, The University of Texas System, priority 2009, dated 2013).

How the values were obtained:
[1] = for solubility in organic solvents: organic solvents incl. alcohols, ketones, ethers, aldehydes, acetonitrile, acetic acid, methylene chloride, chloroform
[2] = system: Pseudomonas aeruginosa cells embedded in a biofilm; settings: MBC for the identical strain grown in liquid suspension

SMILES | solubility in organic solvents [1] | solubility in water [1] | antibiotic level unable to kill biofilm-embedded cells [2]
[H]/N=C(\N/C(=N/[H])NCCCCCCNC(=N)NC(=N)Nc1ccc(Cl)cc1)Nc1ccc(Cl)cc1 [Chlorhexidine] | soluble in both water and organic solutions | soluble in both water and organic solutions | –
CO[C@H]1/C=C/O[C@@]2(C)Oc3c(C)c(O)c4c(O)c(c(/C=N/N5CCN(C)CC5)c(O)c4c3C2=O)NC(=O)/C(C)=C\C=C\[C@H](C)[C@H](O)[C@@H](C)[C@@H](O)[C@@H](C)[C@H](OC(C)=O)[C@@H]1C [Rifampin] | freely soluble in acidic aqueous solutions and organic solutions | very slightly soluble in water | –
NC[C@H]1O[C@H](O[C@H]2[C@H](O)[C@@H](O[C@H]3O[C@H](CO)[C@@H](O)[C@H](N)[C@H]3O)[C@H](N)C[C@@H]2N)[C@H](N)C[C@@H]1O [tobramycin] | – | – | greater than 50 times the minimum bactericidal concentration (MBC)
